Experiment [1] relates to SAMURI / 17-mer substrate RNA (RNA, ribozyme) GGUUGAAGGCAUGGCUCAGGGACUUCGGUCCGCUGCAGUCAGUAUGUCC/ACAUACUGAGCCUUCAA
As to the kind of experiment: inhibition of SAMURI trans-propargylation, PAGE. As to conditions: 120 mM KCl, 5 mM NaCl, 10 mM MgCl2; pH 7.5, 37 °C, 1 h; no competition with 10 µM ProSeDMA up to 1 mM SAM; methylates substrate at 3 mM.

For experiment [2] the test system is unchanged. The experiment can be described thus: Michaelis-Menten fit of kobs, alkylation of Cy5-labelled substrate, denaturing PAGE. As to conditions: 120 mM KCl, 5 mM NaCl, 10 mM MgCl2; 50 mM HEPES, pH 7.5, 37 °C; apparent; 32.6 ± 2.2 µM at 0.5 mM Mg2+; covalent transfer to substrate.

Turning to `C[S+](CC[C@H](N)C(=O)O)C[C@H]1O[C@@H](n2cnc3c(N)ncnc32)[C@H](O)[C@@H]1O` (some centres unmarked), in experiment [1], the binding result was “weak”.
`C#CC[Se+](CCC(N)C(N)=O)C[C@H]1O[C@@H](n2cnc3c(N)nc(N)nc32)[C@H](O)[C@@H]1O` (some centres unmarked): the “Km,app” value in experiment [2] is 8.9 ± 1.9 µM.

These data come from article PMC10624628 (2023).
